Measured values published in PMC7221086, “Trefoil factors share a lectin activity that defines their role in mucus” (Nature Communications, 2020).

Legend:
[1] = biological target: T1, mTFF3 (human TFF3, monomeric) (Homo sapiens, UniProt Q07654, C78S); experiment: Isothermal titration calorimetry of glycans against mTFF3; format: binding
T1 construct: with an N-terminal PelB signal peptide, no interchain Cys, and a C-terminal His6-tag; PelB signal peptide (N, cleaved yes); His6 (C, cleaved yes); made in house; host or cells: E. coli T7 Express, periplasmic extraction
T1 sequence (Q07654 22-80 C78S): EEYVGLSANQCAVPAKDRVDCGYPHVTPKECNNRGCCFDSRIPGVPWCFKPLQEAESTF
Protocol: (§1) All TFF and ligand stock solutions were prepared in the same buffer (50 mM HEPES, 50 mM NaCl, pH 7.4) and filtered (0.22 µm) just prior to titration. All control and non-binding ligand experiments were performed as 12 × 3.18 µl injections. For experiments with GlcNAc-α-1,4-Gal (Carbosynth), 25 × 1.58 µl injections were used. All runs were performed at 25 °C in a MicroCal iTC200 (Malvern).
(§2) Supplementary Table 2: Parameters used for ITC and thermodynamic terms determined for
(§3) GlcNAc-α-1,4-Gal binding to the TFFs. Data are presented as mean values ±SD for three
(§4) Protein GlcNAc-α- T n Kd ΔH ΔS -TΔS ΔG
(§5) (30 µM) 1,4-Gal (µM) (℃) (µM) (kcal · mol-1) (cal · mol-1 · K-1) (kcal · mol-1) (kcal · mol-1)

the other TFF mutants = experiment: ITC of GlcNAc-α-1,4-Gal against the other TFF mutants; format: binding, human
Protocol: as §1
(§6) Supplementary Figure 1: ITC controls and negative results. Top row: Ligand into buffer and
(§7) buffer into protein controls for Figure 1D. Bottom row: ITC data for TFF mutants.
(§8) (1 picture or pasted object on this page, not shown here)

mTFF1 = biological target: T2, mTFF1 (Homo sapiens, UniProt P04155); experiment: Tryptophan fluorescence quenching assay, mTFF1; format: binding
T2 construct: PelB signal peptide (N, cleaved yes); His6 (C, cleaved yes); made in house; host or cells: E. coli T7 Express, periplasmic extraction
T2 sequence (P04155 29-72 limits assumed): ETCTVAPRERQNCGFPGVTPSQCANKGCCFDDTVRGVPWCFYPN
Protocol: (§9) Tryptophan fluorescence quenching assays were performed at 25 °C on an EnVision 2105 Multimode Plate Reader (PerkinElmer) with excitation at 280 nm and emission measured at 340 nm. The assay was performed in a 384-well plate (Corning, low volume black round bottom polystyrene non-binding surface) using 15 µl per well. Each sample contained mTFF1 or mTFF3 (5 µM) and GlcNAc-α-1,4-Gal (1 µM–4.1 mM) in 50 mM BTP/citric acid, 25 mM NaCl, at either pH 2.6, 5.0, or 7.4. For each ligand dilution series, Kd was calculated by fitting the data to a one-site binding curve using Prism 8 (GraphPad) and the mean calculated from three independent experiments.

dTFF1bio-N14A = biological target: T3, dTFF1bio-N14A (Homo sapiens, UniProt P04155, N40A); experiment: ITC of GlcNAc-α-1,4-Gal against dTFF1bio-N14A; format: binding; conditions: mutant dTFF1bio-N14A
T3 construct: […]; made in house; host or cells: E. coli SHuffle T7; dimerised with K3Fe(CN)6
T3 sequence (P04155 25-84 N40A): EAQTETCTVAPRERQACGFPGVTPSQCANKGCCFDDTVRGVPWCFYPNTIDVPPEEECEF
Protocol: as §1, §6, §7, §8

mTFF3 = biological target: T4, mTFF3 (Homo sapiens, UniProt Q07654, C78S); experiment: Tryptophan fluorescence quenching assay, mTFF3; format: binding
T4 construct: with an N-terminal PelB signal peptide, no interchain Cys, and a C-terminal His6-tag; PelB signal peptide (N, cleaved yes); His6 (C, cleaved yes); made in house; host or cells: E. coli T7 Express, periplasmic extraction
T4 sequence (Q07654 22-80 C78S): T1 sequence (Q07654 22-80 C78S)
Protocol: as §9

[2] = biological target: T5, mTFF1 (human TFF1, monomeric) (Homo sapiens, UniProt P04155); experiment: Isothermal titration calorimetry of glycans against mTFF1; format: binding; conditions: 25 °C
T5 construct: PelB signal peptide (N, cleaved yes); His6 (C, cleaved yes); made in house; host or cells: E. coli T7 Express, periplasmic extraction
T5 sequence (P04155 with tags, fused parts or gaps): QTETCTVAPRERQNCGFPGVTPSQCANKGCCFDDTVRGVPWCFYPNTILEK
Protocol: as §1, §2, §3, §4, §5

TFF2 (human TFF2) = biological target: T6, TFF2 (human TFF2) (Homo sapiens, UniProt Q03403, N38Q); experiment: Isothermal titration calorimetry of glycans against TFF2; format: binding
T6 construct: with an N-terminal gp67 signal peptide and a C-terminal His10-tag; gp67 signal peptide (N, cleaved yes); made in house; host or cells: Sf21 insect cells (baculovirus), secreted
T6 sequence (Q03403 24-129 N38Q): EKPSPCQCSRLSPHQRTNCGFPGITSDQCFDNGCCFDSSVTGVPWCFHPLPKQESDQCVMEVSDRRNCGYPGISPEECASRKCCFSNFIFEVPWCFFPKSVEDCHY
Protocol: as §1, §2, §3, §4, §5

all TFFs = experiment: Dissociation constant of TFF-disaccharide complexes, summary of orthogonal techniques; format: binding, human; conditions: physiological pH, approximate
Protocol: as §1, §9

[3] = biological target: bacterial carbohydrate-binding module family 32 protein (CBM32); conditions: CBM32 binding GlcNAc-α-1,4-Gal; cited from earlier work

SMILES: CC(=O)N[C@H]1[C@@H](O[C@@H]2[C@H](O)[C@@H](O)C(O)O[C@@H]2CO)O[C@H](CO)[C@@H](O)[C@@H]1O (stereo partly drawn) [GlcNAc-α-1,4-Gal]
- Kd [1]: 65 ± 5 µM
- n ([1]; ITC stoichiometry, 25 °C): 1.0 ± 0.1
- -TΔS ([1]; ITC, 25 °C): 5.0 ± 0.5 kcal/mol
- ΔG ([1]; ITC, 25 °C): -5.83 ± 0.05 kcal/mol
- ΔH ([1]; ITC, 25 °C): -10.8 ± 0.5 kcal/mol
- ΔS ([1]; ITC, 25 °C): -17 ± 2 cal · mol-1 · K-1
- binding by ITC (the other TFF mutants): unable to detect any binding
- Kd (mTFF1; pH 2.6, 25 °C): 67 ± 1 µM
- Kd (mTFF1; pH 7.4, 25 °C): 37 ± 2 µM
- binding by ITC (dTFF1bio-N14A): unable to detect any binding
- binding by ITC (dTFF1bio-N14A; listed as GlcNAc-a-1,4-Gal): could not detect any residual binding
- Kd (mTFF3; pH 2.6, 25 °C): 350 ± 60 µM
- Kd (mTFF3; pH 7.4, 25 °C): 58 ± 1 µM
- Kd at pH 2.6 relative to pH 7.4 (mTFF3; mTFF3): six-fold higher
- n ([2]; ITC stoichiometry): 1.0 ± 0.2
- -TΔS ([2]; ITC): 4 ± 2 kcal/mol
- ΔG ([2]; ITC): -5.97 ± 0.03 kcal/mol
- ΔH ([2]; ITC): -10 ± 2 kcal/mol
- ΔS ([2]; ITC): -14 ± 5 cal · mol-1 · K-1
- Kd ([2]; ITC, 50 mM HEPES, 50 mM NaCl, pH 7.4, protein 30 µM): 49 ± 4 µM
- Kd (TFF2 (human TFF2)): 44 ± 8 µM
- n (TFF2 (human TFF2); ITC stoichiometry, 25 °C): 0.7 ± 0.3
- -TΔS (TFF2 (human TFF2); ITC, 25 °C): 20 ± 10 kcal/mol
- ΔG (TFF2 (human TFF2); ITC, 25 °C): -6.2 ± 0.2 kcal/mol
- ΔH (TFF2 (human TFF2); ITC, 25 °C): -20 ± 10 kcal/mol
- ΔS (TFF2 (human TFF2); ITC, 25 °C): -60 ± 40 cal · mol-1 · K-1
- Kd (all TFFs): ~50 µM
- Kd [3]: 72 µM
